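1) Cells in 96-well plates. 2) Compound, 48 h, 5 concentrations. 3) Linear interpolation between surrounding doses. 4) Unreached endpoint = highest concentration. Here, GI50 denotes the concentration required for 50% inhibition of growth.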 The source made the active and inactive calls. Cut-off read from the data, not from the text of the source: active = GI50 up to about 1.1 µM and inactive = higher.
Legend:
Assay in all cases: NCI-60 cell line screen, 48 h
NCI-H23 = tested on: NCI-H23
RPMI-8226 = tested on: RPMI-8226
SN12C = tested on: SN12C
HL-60 = tested on: HL-60
TK-10 = tested on: TK-10
Hs-578T = tested on: Hs-578T
RXF 393 = tested on: RXF 393
SNB-19 = tested on: SNB-19
786-0 = tested on: 786-0
NCI-H522 = tested on: NCI-H522
SF-295 = tested on: SF-295
NCI/ADR-RES = tested on: NCI/ADR-RES
OVCAR-5 = tested on: OVCAR-5
NCI-H460 = tested on: NCI-H460
SW-620 = tested on: SW-620
KM12 = tested on: KM12
HT-29 = tested on: HT-29
COLO 205 = tested on: COLO 205
PC-3 = tested on: PC-3
U-251 = tested on: U-251

Measured: GI50

O=C(/C=C/c1ccccc1)Oc1ccc(C(=O)/C=C/c2ccccc2)cc1
inactive: NCI-H23 10.6 µM | RPMI-8226 3.25 µM | SN12C 10.3 µM | HL-60 2.84 µM | TK-10 14.5 µM | Hs-578T 23.3 µM | RXF 393 23.1 µM | SNB-19 15.1 µM | 786-0 6.53 µM | NCI-H522 11.4 µM | SF-295 12.9 µM | NCI/ADR-RES 12.1 µM | OVCAR-5 13.7 µM | NCI-H460 8.87 µM | SW-620 8.75 µM | KM12 5.4 µM | HT-29 12.1 µM | COLO 205 13.9 µM | PC-3 9.31 µM

CCCCCC(C)C[C@H]1CO[C@H](c2ccc[nH]2)N[C@H]1C(=O)OC (some centres not stated)
inactive: NCI-H23 > 100 µM | RPMI-8226 > 100 µM | SN12C > 100 µM | HL-60 > 100 µM | TK-10 > 100 µM | Hs-578T > 100 µM | RXF 393 > 100 µM | SNB-19 > 100 µM | 786-0 > 100 µM | NCI-H522 > 100 µM | SF-295 > 100 µM | NCI/ADR-RES > 100 µM | OVCAR-5 > 100 µM | NCI-H460 > 100 µM | SW-620 > 100 µM | KM12 > 100 µM | HT-29 > 100 µM | COLO 205 > 100 µM | PC-3 > 100 µM | U-251 > 100 µM

O=C1NC(N2CCOCC2)=N/C1=C\c1ccc(Cl)cc1
inactive: NCI-H23 > 100 µM | RPMI-8226 > 100 µM | SN12C > 100 µM | HL-60 > 100 µM | TK-10 > 100 µM | Hs-578T > 100 µM | RXF 393 > 100 µM | SNB-19 > 100 µM | 786-0 > 100 µM | NCI-H522 > 100 µM | SF-295 > 100 µM | NCI/ADR-RES > 100 µM | OVCAR-5 > 100 µM | SW-620 > 100 µM | KM12 > 100 µM | HT-29 > 100 µM | COLO 205 > 100 µM | PC-3 > 100 µM | U-251 > 100 µM

Cc1ccc2c(c1C)C(=O)/C(=C/c1cccc(C)c1C(=O)O)C2
inactive: NCI-H23 > 100 µM | RPMI-8226 71.3 µM | SN12C > 71.4 µM | HL-60 48.6 µM | TK-10 > 100 µM | Hs-578T > 86.1 µM | RXF 393 63.1 µM | SNB-19 > 100 µM | 786-0 > 100 µM | NCI-H522 40.1 µM | SF-295 > 100 µM | NCI/ADR-RES 59.8 µM | OVCAR-5 > 100 µM | NCI-H460 65 µM | KM12 47.6 µM | HT-29 85.5 µM | COLO 205 > 100 µM | PC-3 57.5 µM | U-251 79.1 µM

— ChEMBL document CHEMBL1201862, “PubChem BioAssay data set” (2004)
